Values quoted from earlier work, collected in patent US9687466B2, “Use of dianhydrogalactitol and analogs and derivatives thereof to treat glioblastoma multiforme” (DELMAR PHARMACEUTICALS, INC., priority 0212, dated 2017).

Conditions: cited from earlier work

## O[C@H]([C@H](O)[C@@H](O)CBr)[C@H](O)CBr [dibromodulcitol]
  absorption by the oral route: rapid and fairly complete
